The term EC50 denotes the concentration giving half of the maximal effect. One may read the EC90 as the point of the concentration-response curve where the effect stands at 90%.

In one data set the test system is L929 cells. Details: method as in Simões-Silva et al. (2019). The note with it: ± S.D., ref Simões-Silva et al. (2019), read-out: Toxicity against L929 cells LC50; cited from earlier work.
In data set [1] the test system is intracellular forms of Trypanosoma cruzi (Tulahuen strain, DTU VI). The settings on record: read-out: Activity against intracellular forms of the parasite EC50, ± S.D., ref Simões-Silva et al. (2019); cited from earlier work.
Data set [2] has as its system bloodstream trypomastigote forms of Trypanosoma cruzi (Y strain, DTU II). The settings on record: ref Simões-Silva et al. (2019), cited from earlier work; for EC50: read-out: Activity against bloodstream trypomastigotes EC50; for EC50 / EC90: Y strain; for EC90: read-out: Activity against bloodstream trypomastigotes EC90.
The nature of a further data set: in vitro. The format is cell-based. The note with it: mouse. On the procedure:
L929 culture cells were seeded in 96-well plates with 4 × 10^3 cells per well and sustained in RPMI medium supplemented with 10% FBS. The compounds were added (0–400 μM, serially diluted 1:2) and the non-infected cultures incubated for 96 h at 37°C/5% CO2. Then, their viability was assessed by Alamar Blue reagent following the manufacturer's specifications. Controls were carried out with parasites kept under the same conditions in the absence of the compounds.

Data set [3] deals with intracellular forms of Trypanosoma cruzi (Tulahuen strain, DTU VI). Kind of data set: In vitro activity against intracellular forms of T. cruzi (Tulahuen strain, β-galactosidase) in L929 cells. Type of data set: cell-based. The settings on record: for Selectivity index (IC50/EC50): SI = LC50 (L929) / EC50 (intracellular forms); for EC90 / EC50: Tulahuen strain in L929 cells, 96 h, 95% confidence interval in brackets; for EC90: read-out: Activity against intracellular forms of the parasite EC90; for EC50: read-out: Activity against intracellular forms of the parasite EC50. On the procedure:
L929 cells were infected with trypomastigotes obtained from the supernatant of infected cultures. After 2 h of interaction (10 parasites per host cell), the parasites which were not internalized were removed by replacing the RPMI medium. After 48 h of incubation, the compounds were added to the infected cultures (0–10 μM, serially diluted 1:2) and the cultures incubated for 96 h at 37°C/5% CO2. BZ and DMSO (solvent used for the compounds) were run in parallel as positive and negative controls, respectively. After the elapsed time, 50 μL per well of chlorophenol red-β-D-galactopyranoside was added and a reading was done in a spectrophotometer at 570 nm (Romanha et al., [2010]).

The subject of data set [4] is bloodstream trypomastigote forms of Trypanosoma cruzi (Y strain, DTU II). Kind of data set: In vitro activity against bloodstream trypomastigotes (Y strain). The note with it: 95% confidence interval in brackets. Type of data set: cell-based. The procedure:
Trypomastigote forms were incubated in 96-well microplates. Briefly, 100 μL of a BT suspension (in RPMI medium + 5% FBS) containing 10^7 parasites mL^−1 was added to the same volume of each compound diluted in RPMI + 5% FBS at twice of the desired final concentration (0–50 μM, serially diluted 1:2). After 2 and 24 h at 37°C, the number of live parasites was determined by light microscope quantification using a Neubauer chamber. Controls were carried out with parasites kept under the same conditions in the absence of the compounds. BZ was run in parallel.

[5] abbreviates: Trypanosoma cruzi, TULAHUEN, L929, 96 h.

Where two headings read alike, the source gives them in different places. Some results are limits rather than exact numbers.

As to `O=C(Cn1ccnc1[N+](=O)[O-])NCc1ccccc1` [BZ, benznidazole], the CC50 in the data set on L929 cells was greater than 400 µM. In addition, the EC50 in data set [1] is 4.1 ± 1.3 µM; in data set [2] (2 h), greater than 50 µM; in data set [2] (24 h, ± S.D.), 14.4 ± 3.4 µM. Moreover, the “activity against bloodstream trypomastigotes in words” value in data set [2] (after 2 h of drug exposure) was “completely inactive”. For the same compound, the EC90 was greater than 50 µM in data set [2] (2 h) and 22.8 ± 7.8 µM in data set [2] (24 h, ± S.D.).
On to `Cc1ccc(CC(=O)c2ccc(OCCCCn3ccnc3)c(Br)c2)cc1Nc1nccc(-c2cccnc2)n1` [LS2/89], for which, in the data set “in vitro”, the CC50 at 96 h was 12.3 µM. Moreover, the “Selectivity index (IC50/EC50)” value in data set [3] stood at 64.74. For the same compound, the EC90 in data set [3] (setting [5]) was 1.6 µM; in data set [3], 1.68 µM; in data set [4] (24 h), 4.93 µM; in data set [4] (Trypanosoma cruzi, 2 h), 8.12 µM; in data set [4] (Trypanosoma cruzi, 24 h) it was 4.9 µM. Further, the EC50 turned out to be 0.19 µM in data set [3] (Trypanosoma cruzi); 4.83 µM in data set [4] (Trypanosoma cruzi, 2 h); 2.67 µM in data set [4] (Trypanosoma cruzi, 24 h).
With `Cc1ccc(CC(=O)c2cccc(OCCCCn3ccnc3)c2)cc1Nc1nccc(-c2cccnc2)n1` [LS2/97], the CC50 at 96 h in “in vitro” is 19.3 µM. Moreover, in data set [3], the “Selectivity index (IC50/EC50)” value is given as 14.81. The EC90 in data set [3] (setting [5]) was greater than 10 µM; in data set [4] (Trypanosoma cruzi, 2 h) it was 11.4 µM; in data set [4] (Trypanosoma cruzi, 24 h), 8.52 µM. The EC50 came out at 1.3 µM in data set [3] (Trypanosoma cruzi); 7.84 µM in data set [4] (Trypanosoma cruzi, 2 h); 4.72 µM in data set [4] (Trypanosoma cruzi, 24 h).
In “in vitro”, `Cc1ccc(CC(=O)c2ccccc2OCCCCn2ccnc2)cc1Nc1nccc(-c2cccnc2)n1` [LS2/98] yielded a CC50 at 96 h of 12.2 µM. In addition, the “Selectivity index (IC50/EC50)” value in data set [3] was found to be 3.93. Moreover, the EC90 in data set [3] (setting [5]) is greater than 10 µM; in data set [4] (Trypanosoma cruzi, 2 h), greater than 50 µM; in data set [4] (Trypanosoma cruzi, 24 h) it was 22 µM. Also, the EC50 in data set [3] (Trypanosoma cruzi) was 3.31 µM; in data set [4] (Trypanosoma cruzi, 2 h), greater than 50 µM; in data set [4] (Trypanosoma cruzi, 24 h), 9.59 µM.
For `COc1ccc(C(=O)Cc2ccc(C)c(Nc3nccc(-c4cccnc4)n3)c2)cc1OCCCCn1ccnc1` [LS2/116], the CC50 at 96 h in the data set “in vitro” was 5.13 µM. The “Selectivity index (IC50/EC50)” value in data set [3] is listed as 3.49. Further, the EC90 was greater than 10 µM in data set [3] (setting [5]); 28.1 µM in data set [4] (Trypanosoma cruzi, 2 h); 7.09 µM in data set [4] (Trypanosoma cruzi, 24 h). For the same compound, the EC50 in data set [3] (Trypanosoma cruzi) amounted to 1.47 µM; in data set [4] (Trypanosoma cruzi, 2 h), 12 µM; in data set [4] (Trypanosoma cruzi, 24 h), 3.89 µM.
In the data set “in vitro”, `COc1cc(C(=O)Cc2ccc(C)c(Nc3nccc(-c4cccnc4)n3)c2)ccc1OCCCCn1ccnc1` [LS2/122] returned a CC50 at 96 h of 5.44 µM. Further, the “Selectivity index (IC50/EC50)” value in data set [3] is 1.22. The EC90 was greater than 10 µM in data set [3] (setting [5]); 22.1 µM in data set [4] (Trypanosoma cruzi, 2 h); 5.34 µM in data set [4] (Trypanosoma cruzi, 24 h). Further, the EC50 is 4.47 µM in data set [3] (Trypanosoma cruzi); 11.1 µM in data set [4] (Trypanosoma cruzi, 2 h); 3.27 µM in data set [4] (Trypanosoma cruzi, 24 h).
For `Cc1ccc(CC(=O)c2ccc(Br)cc2OCCCCn2ccnc2)cc1Nc1nccc(-c2cccnc2)n1` [LS2/128], in the data set “in vitro”, the CC50 at 96 h was 17.9 µM. In addition, in data set [3], the “Selectivity index (IC50/EC50)” value is on record as 4.22. Further, the EC90 in data set [3] (setting [5]) was greater than 10 µM; in data set [4] (Trypanosoma cruzi, 2 h), 8.93 µM; in data set [4] (Trypanosoma cruzi, 24 h), 5.69 µM. Moreover, the EC50 in data set [3] (Trypanosoma cruzi) was 4.25 µM; in data set [4] (Trypanosoma cruzi, 2 h), 5.93 µM; in data set [4] (Trypanosoma cruzi, 24 h), 4.12 µM.
Turning to `Cc1ccc(CC(=O)c2ccc([N+](=O)[O-])c(OCCCCn3ccnc3)c2)cc1Nc1nccc(-c2cccnc2)n1` [LS2/130], the “Selectivity index (IC50/EC50)” value in data set [3] worked out at 4.84. The EC90 in data set [3] (setting [5]) is 9.44 µM; in data set [4] (Trypanosoma cruzi, 2 h), 7.31 µM; in data set [4] (Trypanosoma cruzi, 24 h) it was 4.8 µM. In addition, the EC50 in data set [3] (Trypanosoma cruzi) was 1.05 µM; in data set [4] (Trypanosoma cruzi, 2 h), 5.69 µM; in data set [4] (Trypanosoma cruzi, 24 h), 3.4 µM.

These data come from paper PMC10090470 (Parasitology, 2023).
